Format in all cases: functional
Experiment [1] has as its system Enterobacteria phage lambda. In words: Induction of lambda phage production in Escherichia coli W1709 (lambda) assessed as plaque formation at 3.1 ug/ml preincubated for 30 mins followed by heart infusion broth and glucose addition measured after 120 mins relative to control.
Experiment [2] relates to L1210. In words: Antitumor activity against mouse L1210 cells allografted in mouse assessed as tumor growth inhibition at 0.64 mg/kg, ip relative to control. Particulars: route intraperitoneal.
Experiment [3] deals with Bacillus spizizenii. Briefly: Antibacterial activity against Bacillus subtilis ATCC 6633 at 3.1 ug/ml by plate assay. Particulars: read-out: IZ.
Experiment [4] has as its system Enterobacteria phage lambda. In words: Induction of lambda phage production in Escherichia coli W1709 (lambda) assessed as plaque formation up to 50 ug/ml preincubated for 30 mins followed by heart infusion broth and glucose addition measured after 120 mins.
Experiment [5] relates to L1210. Briefly: Antitumor activity against mouse L1210 cells allografted in mouse assessed as tumor growth inhibition at 0.25 to 32 mg/kg, ip relative to control. The following applies: dose mg/kg 0.25-32; route intraperitoneal.
Experiment [6] relates to Bacillus spizizenii. In words: Antibacterial activity against Bacillus subtilis ATCC 6633 at 50 ug/ml by plate assay. Particulars: read-out: IZ.

Active and inactive are the calls of the source. The rule behind the calls is not given here. Where only a bound is given, the exact number is not on record here.

Regarding `CC(=O)[C@]1(O)Cc2c(O)c3c(c(O)c2[C@@H](O[C@H]2C[C@H](N)[C@H](O)[C@H](C)O2)C1)C(=O)c1c(O)cccc1C3=O` [CARUBICIN], the T/C came out at 6.2 in experiment [1] and 157 in experiment [2]. In addition, in experiment [3], the zone of inhibition at 3.1 µg/mL is 19 mm.

As for `CC(=O)[C@]1(O)Cc2c(O)c3c(c(O)c2[C@@H](S[C@H]2CCC[C@@H](N)C2)C1)C(=O)c1c(O)cccc1C3=O`, in experiment [4], the result was inactive. Besides, the T/C in experiment [5] is reported as below 125. Further, the zone of inhibition at 50 µg/mL in experiment [6] was determined as 10.3 mm.

In the case of `CC(=O)[C@]1(O)Cc2c(O)c3c(c(O)c2[C@@H](S[C@@H]2CCC[C@@H](N)C2)C1)C(=O)c1c(O)cccc1C3=O`, the outcome in experiment [4] was inactive. In experiment [6], the zone of inhibition at 50 µg/mL is 10.5 mm.

These data come from ChEMBL document CHEMBL3244189, “Synthesis and antitumor properties of 7-deoxy-7-[(cis- and trans-3-aminocyclohexane)thio]carminomycinone” (1979).
